Data published in US7812017B2, “4-substituted indole and indoline compounds” (Biovitrum AB (publ.), priority 2006, dated 2010).
pKi: −log10 of the molar value. Structures can show the parent of a compound that is named as a salt.

Assays:
human 5-HT6 receptor [1] = molecular target: T1, human 5-HT6 receptor (Homo sapiens, UniProt P50406); test: 5-HT6 receptor binding assay ([3H]-LSD, SPA, membranes of transfected HEK293 cells); details: over three experiments
human 5-HT6 receptor [2] = molecular target: T1, human 5-HT6 receptor; test: biochemical

T1 sequence (P50406 whole entry): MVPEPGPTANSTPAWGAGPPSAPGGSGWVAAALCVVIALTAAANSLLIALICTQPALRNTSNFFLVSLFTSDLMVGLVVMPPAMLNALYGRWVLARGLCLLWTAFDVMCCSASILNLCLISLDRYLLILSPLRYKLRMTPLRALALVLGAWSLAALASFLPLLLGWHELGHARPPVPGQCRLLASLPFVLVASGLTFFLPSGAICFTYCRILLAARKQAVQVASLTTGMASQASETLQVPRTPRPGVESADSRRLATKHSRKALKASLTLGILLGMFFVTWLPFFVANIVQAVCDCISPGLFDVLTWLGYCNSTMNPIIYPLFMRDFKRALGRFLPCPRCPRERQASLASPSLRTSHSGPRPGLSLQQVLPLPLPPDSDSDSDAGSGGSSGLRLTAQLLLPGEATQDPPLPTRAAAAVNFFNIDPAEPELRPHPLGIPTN

NCCc1c[nH]c2ccc(O)cc12 [Example 5-HT, 5-hydroxytryptamine]
Hill coefficient (human 5-HT6 receptor [1]): 0.94 (SD 0.09)

CN(C)Cc1cccc2c1ccn2S(=O)(=O)c1ccccc1 [Example 47, N,N-Dimethyl-1-[1-(phenylsulfonyl)-1H-indol-4-yl]methanamine trifluoroacetate]
pKi (human 5-HT6 receptor [2]): 8.48

O=S(=O)(c1ccccc1)n1ccc2c(CN3CCNCC3)cccc21 [Example 1, 1-(Phenylsulfonyl)-4-(piperazin-1-ylmethyl)-1H-indole hydrochloride]
pKi (human 5-HT6 receptor [2]): 8.74

O=S(=O)(c1ccccc1)n1ccc2c(CN3CCC3)cccc21 [Example 87, 4-Azetidin-1-ylmethyl)-1-(phenylsulfonyl)-1H-indole trifluoroacetate]
pKi (human 5-HT6 receptor [2]): 9.05
